This is an account of results in article PMC10468765, “Substituted 1,2,4-Triazoles as Novel and Selective Inhibitors of Leukotriene Biosynthesis Targeting 5-Lipoxygenase-Activating Protein” (ACS Omega, 2023).

The assay concerns 5-lipoxygenase-activating protein (FLAP). Put plainly: cells. The arrangement: species or system human neutrophils; Inhibition of 5-LO product formation (LTB4, its trans isomers, 5-H(p)ETE) in A23187-stimulated human neutrophils, FLAP-dependent assay. The conditions noted are these: Neutrophil; 2.5 uM A23187.
In turn, `COc1ccc(-n2c(SCc3ccc(C(F)(F)F)o3)nnc2-c2cccs2)cc1` [6l] had a 50% inhibitory concentration (IC50) of 1.42 ± 0.31 µM.

Regarding `Clc1ccc(-n2c(SCc3nc4ccccc4s3)nnc2-c2cccs2)cc1` [6d], the IC50 was found to be 1.36 ± 0.27 µM.

On to `COc1ccc(-n2c(SCc3nc4ccccc4s3)nnc2-c2ccccc2)cc1` [6q], for which 1.28 ± 0.19 µM corresponded to half-maximal inhibition (IC50).

`N#Cc1ccc(-c2nnc(SCc3nc4ccccc4s3)n2-c2ccccc2)cc1` [6z]: the IC50 worked out at 1.93 ± 0.37 µM.

As to `COc1cccc(-n2c(SCc3nc4ccccc4s3)nnc2-c2cccs2)c1` [6c], the half-inhibitory concentration (IC50) came to 1.58 ± 0.59 µM.

Regarding `COc1ccc(-n2c(SCc3ccc4ccccc4n3)nnc2-c2cccs2)cc1` [6j], the IC50 was found to be 3.69 ± 1.02 µM.

`COc1cccc(-n2c(SCc3ccc4ccccc4n3)nnc2-c2cccs2)c1` [6k] had an IC50 of 4.17 ± 0.27 µM.

Compound `COc1ccc(-n2c(OCc3ccc4ccccc4n3)nnc2-c2cccs2)cc1` [6o] showed a concentration for half-maximal inhibition (IC50) of 6.34 ± 0.79 µM. Compared with the last compound, the IC50 is about 1.5-fold higher.

`COc1ccc(-n2c(SCc3nc4ccccc4s3)nnc2-c2cccs2)cc1` [6a] registered an IC50 of 2.18 ± 0.65 µM.

Take `COc1ccc(-n2c(OCc3nc4ccccc4s3)nnc2-c2cccs2)cc1` [6n]: the IC50 was found to be 3.01 ± 0.84 µM.

With `COc1ccc(-n2c(SCc3nc4ccccc4s3)nnc2-c2ccc(C#N)cc2)cc1` [6s], the midpoint of inhibition, the IC50, lay at 1.92 ± 0.58 µM.

In general, IC50 refers to the point on the concentration scale where inhibition reaches its midpoint. A higher IC50 goes with lower potency.
